Laboratory results: ChEMBL document CHEMBL5724696, “Autophagy assay results for EUbOPEN Chemogenomics Library” (2024)
Values joined by “and” are separate entries in the source; they are usually repeats but may differ in a detail not shown here. Identical values can stand only once.

How the values were obtained:
U2OS [1] = assay: (§1) Here: values are normalized to the positive (DMSO; basel flux = defined as 100% suppression) and negative (250nM Torin1; mTOR inhibitor; maximal inducer of autophagy defined as 0% suppression) control compounds and represented as % of ER-phagy suppression. […] The impact of autophagy induction on cells is complex and depends on the affected target. […] Of note, treatment concentrations may be sub-optimal for specific compounds, leading to false negative annotations.; format: functional, Homo sapiens; details: Compound Concentration 1 uM, Culturing Media DMEM, 1 % Penicillin/Streptomycin, 10% Fetal bovin serum Add-On: blasticidin, Screening Media Control DMEM, 10% Fetal bovin serum Add-On: 1 µg/ml Doxycyclin, Screening Media Samples DMEM
U2OS [2] = assay: as §1; format: functional, Homo sapiens; details: Compound Concentration 1 uM, Culturing Media DMEM, 1 % Penicillin/Streptomycin, 10% Fetal bovin serum Add-On: blasticidin, Screening Media Control DMEM, 10% Fetal bovin serum Add-On: 1 µg/ml Doxycyclin, Screening Media Samples DMEM; remark: listed apart in the source
[3] = Timepoint 12 hours, 10% Fetal bovin serum Add-On: 1 µg/ml Doxycyclin 250nM Torin1
[4] = Timepoint 24 hours, 10% Fetal bovin serum Add-On: 1 µg/ml Doxycyclin 250nM Torin1
[5] = Timepoint 36 hours, 10% Fetal bovin serum Add-On: 1 µg/ml Doxycyclin 250nM Torin1
[6] = Timepoint 60 hours, 10% Fetal bovin serum Add-On: 1 µg/ml Doxycyclin 250nM Torin1
[7] = Timepoint 54 hours, 10% Fetal bovin serum Add-On: 1 µg/ml Doxycyclin 250nM Torin1
[8] = Timepoint 12 hours, 10% Fetal bovin serum Add-On: 1 µg/ml Doxycyclin 250nM Torin1, 12 h, 1 µM
[9] = Timepoint 24 hours, 10% Fetal bovin serum Add-On: 1 µg/ml Doxycyclin 250nM Torin1, 24 h, 1 µM
[10] = Timepoint 36 hours, 10% Fetal bovin serum Add-On: 1 µg/ml Doxycyclin 250nM Torin1, 36 h, 1 µM
[11] = Timepoint 60 hours, 10% Fetal bovin serum Add-On: 1 µg/ml Doxycyclin 250nM Torin1, 60 h, 1 µM

| Structure (SMILES) | ER-phagy suppression (U2OS [1]; [3]) [%] | ER-phagy suppression (U2OS [1]; [4]) [%] | ER-phagy suppression (U2OS [1]; [5]) [%] | ER-phagy suppression (U2OS [1]; [6]) [%] | ER-phagy suppression (U2OS [2]; [3]) [%] | ER-phagy suppression (U2OS [2]; [4]) [%] | ER-phagy suppression (U2OS [2]; [5]) [%] | ER-phagy suppression (U2OS [2]; [7]) [%] | ER-phagy suppression (U2OS [1]; [8]) | ER-phagy suppression (U2OS [1]; [9]) | ER-phagy suppression (U2OS [1]; [10]) | ER-phagy suppression (U2OS [1]; [11]) | ER-phagy suppression (U2OS [2]; [8]) | ER-phagy suppression (U2OS [2]; [9]) | ER-phagy suppression (U2OS [2]; [10]) | ER-phagy suppression (U2OS [2]; Timepoint 54 hours, 10% Fetal bovin serum Add-On: 1 µg/ml Doxycyclin 250nM Torin1, 54 h, 1 µM) |
| --- | --- | --- | --- | --- | --- | --- | --- | --- | --- | --- | --- | --- | --- | --- | --- | --- |
| CCOC(=O)c1c(/C(C#N)=C\N)c2ccc(Cl)c(Cl)c2n1C | -5.524 | -4.715 | 1.333 | -3.592 | -23.9161 | -42.4331 | -44.7519 | -41.2832 | – | – | – | – | – | – | – | – |
| Cc1cc(Nc2nccc(C)n2)cc(-c2cnc([C@@]3(O)CC[C@H](C(=O)O)C(C)(C)C3)s2)c1 [MRL-SYKi] | -8.621 | -15.4814 | -12.3884 | -21.2275 | -2.1095 | -20.7857 | -24.9988 | -19.5267 | – | – | – | – | – | – | – | – |
| O=C(O)[C@]1(Cc2cccc(Nc3nccs3)n2)CC[C@@H](Oc2cccc(Cl)c2F)CC1 [MK-5108] | – | – | – | – | – | – | – | – | 0.5036% and -6.3832% | -3.155% and -11.7886% | -0.3659% and -12.8084% | 7.072% and -14.3125% | -21.8455% and -0.3871% | -36.5962% and -17.27% | -35.461% and -24.0375% | -31.7232% and -12.4423% |
| CC(=O)NCC(=O)N1[C@@H]2CC[C@H]1c1ccc(Nc3ncc(C(F)(F)F)c(NC4CCC4)n3)cc12 [PF-03814735] | 2.1297 | 18.4214 | 21.3987 | 29.5902 | -4.576 | -22.3849 | -35.8376 | -44.2787 | – | – | – | – | – | – | – | – |
| CN(c1ccnc(CNc2nc(Nc3ccc4c(c3)CC(=O)N4)ncc2C(F)(F)F)n1)S(C)(=O)=O [PF-00911705] | 7.113 | 19.7718 | 14.8623 | 9.977 | 20.0554 | 26.0373 | 39.3297 | 54.466 | – | – | – | – | – | – | – | – |
| CNc1nc(-c2ccc3c(N)n[nH]c3c2)cc(N2C[C@@H](C(=O)NC3CCCCC3)CC[C@H]2C)n1 | 0.4494 | -26.9041 | -20.7872 | -21.6855 | -64.3148 | -57.2907 | -47.7488 | -36.1372 | – | – | – | – | – | – | – | – |
| O=C(O)CSc1ncnc2cc(-c3cc4ccccc4s3)sc12 | -19.6328 | -17.1874 | -14.8161 | -4.092 | 0.5897 | -12.2442 | -19.5389 | -8.371 | – | – | – | – | – | – | – | – |
| Cc1cnc(-c2cnc(NCCNc3ccc(C#N)cn3)nc2-c2ccc(Cl)cc2Cl)[nH]1 [LADUVIGLUSIB] | 40.8879 | 29.9628 | 22.9027 | 26.8731 | 16.4928 | 17.774 | 23.5271 | 35.0421 | – | – | – | – | – | – | – | – |
| CN1CCN(C(=O)C(C)(C)c2ccc(C(=O)Nc3cn4cc(-c5ccncc5)ccc4n3)cc2)CC1 [T3-CLK] | 46.4649 | 79.2605 | 82.4738 | 83.9667 | 58.6484 | 70.9328 | 70.8309 | 76.3625 | – | – | – | – | – | – | – | – |
| COc1cc(Nc2nccc(-c3cnn4nc(OC)ccc34)n2)cc(C(F)(F)F)c1 | 6.994 | 7.618 | 14.0346 | 17.1827 | 3.334 | -9.159 | -23.3987 | -10.034 | – | – | – | – | – | – | – | – |
| Cn1cc(C2=C(c3cn(C4CCN(Cc5ccccn5)CC4)c4ccccc34)C(=O)NC2=O)c2ccccc21 [ENZASTAURIN] | 35.0144 | 19.4915 | 15.6229 | 9.495 | 5.0599 | -2.39 | -11.3748 | -3.56 | – | – | – | – | – | – | – | – |
| CC(=O)Nc1ccc2ccn(-c3cc(NC4CC4)n4ncc(C#N)c4n3)c2c1 | 13.0338 | 48.9829 | 66.3165 | 75.9257 | 46.1231 | 56.6622 | 75.9855 | 85.4784 | – | – | – | – | – | – | – | – |
| CNCc1ccc(-c2cc(-c3nc(-c4ccc(S(=O)(=O)C(C)C)cc4)cnc3N)on2)cc1 [BERZOSERTIB] | 117.5 | 96.408 | 85.8575 | 85.0285 | 54.7938 | 32.6309 | 31.7276 | 38.9692 | – | – | – | – | – | – | – | – |
| CN(C)C(=O)Cn1cc(-c2ccc(-c3cncc4ccccc34)cc2)cn1 | -8.903 | 10.8163 | 25.7126 | 36.3142 | 5.324 | 37.0971 | 57.9552 | 74.4134 | – | – | – | – | – | – | – | – |
| Cl.NC(=O)c1cnc(N[C@@H]2CCCC[C@@H]2N)nc1Nc1cccc(-n2nccn2)c1 | 9.977 | 25.4122 | 28.6706 | 31.7231 | 27.5492 | 18.4362 | 21.4313 | 34.0409 | – | – | – | – | – | – | – | – |
| CNC(=O)c1ccc(Nc2ncc(C(F)(F)F)c(NCc3nccnc3N(C)S(C)(=O)=O)n2)cc1 [DEFACTINIB] | – | – | – | – | – | – | – | – | -10.5841% and -8.687% | – | -22.8017% and 1.862% | -7.812% and 1.51% | 6.334% and 17.6982% | -6.042% and 9.811% | -8.211% and 10.8271% | – |
| CNC(=O)c1ccccc1Nc1cc(Nc2ccc(N3CCOCC3)cc2OC)ncc1C(F)(F)F [VS-4718] | 7.822 | -10.4532 | -8.464 | -16.508 | 14.2845 | -7.017 | -5.515 | 11.4938 | – | – | – | – | – | – | – | – |
| Cl.Cl.NC1(c2ccc(-c3nc4ccn5c(=O)[nH]nc5c4cc3-c3ccccc3)cc2)CCC1 | 41.5267 | 48.6663 | 54.9602 | 60.1398 | 6.566 | 12.3552 | 31.5322 | 46.784 | – | – | – | – | – | – | – | – |
